In patent publication US4839374A, “4-((Bicyclic heterocyclyl)-methyl and -hetero)-piperidines” (Janssen Pharmaceutica, N.V., priority 1987, dated 1989):

These molecules were tested on compound 48/80-induced lethality (assay: Protection of rats from compound 48/80-induced lethality). Settings: Rattus norvegicus, 4 h, read-out: Compound 48/80 lethality test in rats ED50, s.c. or p.o. 1 h before compound 48/80 0.5 mg/kg i.v.; protection of 50% of animals, survival after 4 hours.
Assay type: in vivo, rats of an inbred Wistar strain
Protocol: Protection of rats from compound 48/80-induced lethality
The protection from compound 48/80-induced lethal circulatory collapse appears to be a simple way of evaluating quantitatively the antihistaminic activity of test compounds. Male rats of an inbred Wistar strain, weighing 240-260 g were used in the experiment. After overnight starvation the rats were transferred to conditioned laboratories (temp.=21±1° C., relative humidity=65+5%). The rats were treated subcutaneously or orally with a test compound or with the solvent (NaCl solution, 0.9%). […] Survival after 4 hours is therefore considered to be a safe criterion of a protective effect of drug administration. The ED50 -values of the compounds of formula (I) are listed in the first column of tables 1 to 4. Said ED50 -values are the values in mg/kg body weight at which the tested compounds protect 50% of the tested animals against compound 48/80-induced lethality. The compounds of formula (I) and the pharmaceutically acceptable acid addition salts thereof are also potent serotonin-antagonists. The potency of the subject compounds as serotonin-antagonists is clearly evidenced by the results obtained in the following tests wherein the antagonistic activity of the subject compounds on the effect of serotonin is examined.

SMILES	ED50 [mg/kg]
Cc1nc2n(c(=O)c1CCN1CCC(Cc3nc4ccccc4n3Cc3ccco3)CC1)CCS2 [Compound 163]	0.02
COc1ccc(CCN2CCC(Cc3nc4cnccc4n3Cc3ccc(F)cc3)CC2)cc1 [Compound 202, 1-[(4-fluorophenyl)methyl]-2-[[1-[2-(4-methoxyphenyl)ethyl]-4-piperidinyl]-methyl]-1H-imidazo-[4,5-c]pyridine]	0.08
CC(C)N1CCC(Cc2nc3cnccc3n2Cc2ccc(F)cc2)CC1 [Compound 100]	0.16
Cc1nc2ccccn2c(=O)c1CCN1CCC(Cc2nc3cnccc3n2Cc2ccc(F)cc2)CC1 [Compound 274]	0.16
c1csc(Cn2c(CC3CCNCC3)nc3ccccc32)c1 [Compound 64, 2-(4-piperidinylmethyl)-1-(2-thienylmethyl)-1H-benzimidazole]	0.04
O=[N+]([O-])c1ccccc1NCCN1CCC(Cc2nc3ccccc3n2Cc2ccc(F)cc2)CC1 [Compound 366]	0.31
O=c1[nH]c2ccccc2c(=O)n1CCCCN1CCC(Cc2nc3ccccc3n2Cc2ccco2)CC1 [Compound 490, 3-[4-[4-[[1-(2-furanylmethyl)-1H-benzimidazol-2-yl]methyl]-1-piperidinyl]butyl]-2,4(1H,3H)-quinazolinedione]	0.31
Cc1nc2n(c(=O)c1CCN1CCC(Cc3nc4ccccc4n3Cc3ccc(F)cc3)CC1)CCCS2 [Compound 158]	0.04
Fc1ccc(Cn2c(CC3CCN(CCNc4nc5ccccc5[nH]4)CC3)nc3ccccc32)cc1 [Compound 328, N-[2-[4-[[1-[(4-fluorophenyl)methyl]-1H-benzimidazol-2-yl]methyl]-1-piperidinyl]ethyl]1H-benzimidazol-2-amine]	0.16
OCCN1CCC(Sc2nc3ccccc3n2Cc2ccc(F)cc2)CC1 [Compound 104, 4-[[1-[(4-fluorophenyl)-methyl]-1H-benzimidazol-2-yl]thio]-1-piperidineethanol]	0.08
N#CCN1CCC(Cc2nc3cccnc3n2Cc2ccc(F)cc2)CC1 [Compound 290]	0.08
S=C=NCCN1CCC(Cc2nc3cccnc3n2Cc2cccs2)CC1 [Compound 402]	0.04
CCOC(=O)N1CCC(Cc2nc3ccccc3n2Cc2cccs2)CC1 [Compound 59, ethyl 4-[[1-(2-thienylmethyl)-1H-benzimidazol-2-yl]methyl]-1-piperidinecarboxylate]	0.02
Cc1nc2n(c(=O)c1CCN1CCC(Cc3nc4cccnc4n3Cc3ccc(F)cc3)CC1)CCCS2 [Compound 205, 7-[2-[4-[[3-[(4-fluorophenyl)methyl]-3H-imidazo[4,5-b]pyridin-2-yl]methyl]-1-piperidinyl]ethyl]-3,4-dihydro-8-methyl-2H,6H-pyrimido[2,1-b][1,3]thiazin-6-one]	0.08
COc1ccc(CCN2CCC(Cc3nc4ccccc4n3Cc3ccccc3F)CC2)cc1 [Compound 515, 1-[(2-fluorophenyl)methyl]-2-[[1-[2-(4-methoxyphenyl)ethyl]-4-piperidinyl]-methyl]-1H-benzimidazole]	0.16
COc1ccc(Cn2c(CC3CCN(CCO)CC3)nc3ccccc32)cc1 [Compound 110, 4-[[1-[(4-methoxyphenyl)methyl]-1H-benzimidazol-2-yl]methyl]-1-piperidineethanol]	0.02
O=C(NCCN1CCC(Cc2nc3ccccc3n2Cc2ccc(F)cc2)CC1)c1ccoc1 [Compound 434, N-[2-[4-[[1-[(4-fluorophenyl)methyl]-1H-benzimidazol-2-yl]methyl]-1-piperidinyl]ethyl]-3-furancarboxamide]	0.0025
CC(C)NC(=O)CN1CCC(Cc2nc3ccccc3n2Cc2ccc(F)cc2)CC1 [Compound 134]	0.04
C[C@@H]1CN(CCNc2ncccn2)CC[C@@H]1Oc1nc2ccccc2n1Cc1ccc(F)cc1 (relative stereo) [Compound 349, cis-N-[2-[4-[[1-[(4-fluorophenyl)methyl]-1H-benzimidazol-2-yl]oxy]-3-methyl-1-piperidinyl]ethyl]-2-pyrimidinamine]	0.08
c1csc(Cn2c(CC3CCN(CCNc4nccs4)CC3)nc3cccnc32)c1 [Compound 361]	0.02
O=c1oc2ccccc2cc1CCN1CCC(Cc2nc3cccnc3n2Cc2ccco2)CC1 [Compound 174]	0.01
OCCN1CCC(Cc2nc3ccccc3n2Cc2ccccc2)CC1 [Compound 112]	0.08

SMILES	ED50 [mg/kg]
Fc1ccc(Cn2c(CC3CCNCC3)nc3ccncc32)cc1 [Compound 50, 3-[(4-fluorophenyl)methyl]-2-(4-piperidinylmethyl)-3H-imidazo[4,5-c]-pyridine]	0.04
O=c1c2ccccc2[nH]c(=S)n1CCN1CCC(Cc2nc3cccnc3n2Cc2ccc(F)cc2)CC1 [Compound 463, 3-[2-[4-[[3-[(4-fluorophenyl)methyl]-3H-imidazo[4,5-b]pyridin-2-yl]methyl]-1-piperidinyl]ethyl]-2,3-dihydro-2-thioxo-4(1H)quinazolinone]	0.08
Fc1ccc(Cn2c(CC3CCN(CCNc4nc5ccccc5[nH]4)CC3)nc3cccnc32)cc1 [Compound 329, N-[2-[4-[[3-[(4-fluorophenyl)methyl]-3H-imidazo[4,5-b]pyridin-2-yl]methyl]-1-piperidinyl]ethyl]1H-benzimidazol-2-amine]	0.31
Cc1ccc(Cn2c(CC3CCNCC3)nc3ccccc32)cc1 [Compound 42, 1-[(4-methylphenyl)methyl]-2-(4-piperidinylmethyl)-1H-benzimidazole]	0.02
Cn1cnc([N+](=O)[O-])c1NCCN1CCC(Cc2nc3ccccc3n2Cc2ccc(F)cc2)CC1 [Compound 377, 4-[[1-[(4-fluorophenyl)methyl]-1H-benzimidazol-2-yl]methyl]-N-(1-methyl-4-nitro-1H-imidazol-5-yl)-1-piperidineethanamine]	0.16
CC1(C)Nc2ccccc2C(=O)N1CCN1CCC(Cc2nc3cccnc3n2Cc2ccccn2)CC1 [Compound 479, 2,3-dihydro-2,2-dimethyl-3-[2-[4-[[3-(2-pyridinylmethyl)-3H-imidazo[4,5-b]-pyridin-2-yl]methyl]-1-piperidinyl]ethyl]-4(1H)-quinazolinone]	0.04
NC(=O)CN1CCC(Cc2nc3ccccc3n2Cc2ccc(F)cc2)CC1 [Compound 149, 4-[[1-[(4-fluorophenyl)methyl]-1H-benzimidazol-2-yl]methyl]-1-piperidineacetamide]	0.04
Cn1ccnc1NCCN1CCC(Cc2nc3ccccc3n2Cc2ccc(F)cc2)CC1 [Compound 452, 4-[[1-[(4-fluorophenyl)methyl]-1H-benzimidazol-2-yl]methyl]-N-(1-methyl-1H-imidazol-2-yl)-1-piperidineethanamine]	0.16
Cc1nc2ccccn2c(=O)c1CCN1CCC(Cc2nc3ccccc3n2Cc2cccs2)CC1 [Compound 257]	0.02
c1coc(Cn2c(CC3CCN(CCNc4nccs4)CC3)nc3cccnc32)c1 [Compound 352, 4-[[3-(2-furanylmethyl)-3H-imidazo[4,5-b]pyridin-2-yl]methyl]-N-(2-thiazolyl)-1-piperidineethanamine]	0.01
Fc1ccc(Cn2c(CC3CCN(CCOCc4ccccn4)CC3)nc3cccnc32)cc1 [Compound 394, 3-[(4-fluorophenyl)methyl]-2-[[1-[2-(2-pyridinylmethoxy)ethyl]-4-piperidinyl]-methyl]-3H-imidazol[4,5-b]pyridine]	0.02
c1ccc(Cn2c(CC3CCN(CCNc4ncccn4)CC3)nc3cccnc32)cc1 [Compound 345]	0.08
OCCN1CCC(Oc2nc3ccccc3n2Cc2ccc(F)cc2)CC1 [Compound 105, 4-[[1-[(4-fluorophenyl)methyl]-1H-benzimidazol-2-yl]oxy]-1-piperidineethanol]	0.01
c1ccc(Cn2c(CC3CCNCC3)nc3ccccc32)cc1 [Compound 40, 1-(phenylmethyl)-2-(4-piperidinylmethyl)-1H-benzimidazole]	0.08
O=c1[nH]c2ccccc2n1CCCN1CCC(Cc2nc3ccccc3n2Cc2ccco2)CC1 [Compound 139, 1-[3-[4-[[1-(2-furanylmethyl)-1H-benzimidazol-2-yl]methyl]-1-piperidinyl]propyl]-1,3-dihydro-2H-benzimidazol-2-one]	0.08
Cn1c(=O)n(CCN2CCC(Cc3nc4cccnc4n3Cc3ccco3)CC2)c(=O)c2ccccc21 [Compound 170]	0.08
COc1ccc(CCN2CCC(Cc3nc4ccncc4n3Cc3ccc(F)cc3)CC2)cc1 [Compound 204, 3-[(4-fluorophenyl)methyl]-2-[[1-[2-(4-methoxyphenyl)ethyl]-4-piperidinyl]methyl]-3H-imidazo-[4,5-c]pyridine]	0.08
Fc1ccc(Cn2c(CC3CCN(Cc4ccccc4)CC3)nc3cccnc32)cc1 [Compound 8, 3-[(4-fluorophenyl)methyl]-2-[[1-(phenylmethyl)-4-piperidinyl]-methyl]-3H-imidazo[4,5-b]pyridine]	0.04
O=C(c1ccco1)N(CCN1CCC(Cc2nc3ccccc3n2Cc2ccco2)CC1)c1ncccn1 [Compound 509, N-[2-[4-[[1-(2-furanylmethyl)-1H-benzimidazol-2-yl]methyl]-1-piperidinyl]-ethyl]-N-(2-pyrimidinyl)-2-furancarboxamide]	0.02
CC(C)N1CCC(Cc2nc3cccnc3n2Cc2ccc(F)cc2)CC1 [Compound 89]	0.04
Fc1ccc(Cn2c(CC3CCN(CCc4cccs4)CC3)nc3cccnc32)cc1 [Compound 117]	0.01
